# Read-outs that look alike come from different tables or passages of the source.
# Columns and labels:
# E. faecium [1] = test: Antibacterial activity evaluation (turbidity, OD600); type: cell-based, Enterococcus faecium (JCM5804); conditions: for EC50: Enterococcus faecium
# Procedure, shortened: (§1)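 Inocula set to 1.0 McFarland (enterococci) or 0.5 McFarland (S. aureus, E. coli), then diluted 1:200 in Mueller–Hinton broth. Growth read as OD600; EC50 given with standard error.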
# S. aureus = test: as above; type: cell-based, Staphylococcus aureus (ATCC29213); conditions: Staphylococcus aureus, S. aureus ATCC29213
# Procedure, shortened: as §1
# efmSHMT [2] = type: binding, Enterococcus faecium; conditions: DSF; final drug concentration 50 μM
# Procedure: Protein samples were prepared as 20 μL aliquots containing 0.1 mg/mL protein (efmSHMT/ecSHMT), 1 μL of the ligand in DMSO (final drug concentration, 50 μM) and 2% or 4% SYPRO Orange (Invitrogen, MA, USA). […] Melting points were evaluated as the half-point of the maximum intensity of each curve.
# E. faecalis = test: Antibacterial activity evaluation (turbidity, OD600); type: cell-based, Enterococcus faecalis (JCM7783); conditions: Enterococcus faecalis, E. faecalis JCM7783
# Procedure, shortened: as §1
# E. faecium [3] = test: Bacterial viability assay (Microbial Viability Assay Kit-WST, OD450); type: cell-based, Enterococcus faecium; conditions: for EC50: Enterococcus faecium
# Procedure: Living E. faecium were determined using the Microbial Viability Assay Kit-WST (DOJINDO, Tokyo, Japan). […] Positive control wells included bacteria seeded into MH broth without compounds, and the negative control wells contained MH broth only. […] Five microlitres of the colouring reagent were added to each well of the 96-well plate every 2 h after starting incubation with each compound.
# ecSHMT = target: T1, ecSHMT (Escherichia coli, UniProt P0A825); test: Thermal stability analysis using differential scanning fluorimetry (DSF); type: binding, E. coli; conditions: final drug concentration 50 μM
# T1 construct: His tag (followed by PreScission protease cleavage site) (N, cleaved yes); made in house; host or cells: E. coli BL21(DE3)
# T1 sequence (P0A825 whole entry): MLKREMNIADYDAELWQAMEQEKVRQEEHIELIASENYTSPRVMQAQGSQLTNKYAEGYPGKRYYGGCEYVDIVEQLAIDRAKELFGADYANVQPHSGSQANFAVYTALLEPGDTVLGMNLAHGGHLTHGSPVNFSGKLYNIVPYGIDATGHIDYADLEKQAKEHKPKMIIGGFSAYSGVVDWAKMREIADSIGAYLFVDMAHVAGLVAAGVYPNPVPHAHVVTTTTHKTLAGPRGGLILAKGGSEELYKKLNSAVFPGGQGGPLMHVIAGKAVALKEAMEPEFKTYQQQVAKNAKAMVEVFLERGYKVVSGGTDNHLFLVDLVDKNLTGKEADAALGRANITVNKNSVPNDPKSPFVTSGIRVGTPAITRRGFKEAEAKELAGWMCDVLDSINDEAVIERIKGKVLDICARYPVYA
# Procedure: Protein samples were prepared as 20 μL aliquots containing 0.1 mg/mL protein (efmSHMT/ecSHMT), 1 μL of the ligand in DMSO (final drug concentration, 50 μM) and 2% or 4% SYPRO Orange (Invitrogen, MA, USA). Measurements were taken using StepOnePlus real-time PCR (Thermo Fisher Scientific) (temperature increment, 1.8%; range, 20–95 °C). Melting points were evaluated as the half-point of the maximum intensity of each curve.
# E. coli = test: Antibacterial activity evaluation (turbidity, OD600); type: cell-based, Escherichia coli (ATCC25922); conditions: Escherichia coli, E. coli ATCC25922
# Procedure, shortened: as §1
# E. faecium [4] = test: Antibacterial assay with an excess concentration of biomolecules (Ser, Gly, inosine, dT, FA); type: cell-based, Enterococcus faecium (JCM5804); conditions: Enterococcus faecium, JCM5804, E. faecium JCM5804
# efmSHMT [5] = target: efmSHMT (Enterococcus faecium, UniProt I3U4H4, M1V); test: biochemical; type: binding
# Chain of efmSHMT (Enterococcus faecium, UniProt I3U4H4, M1V) (I3U4H4 whole entry M1V): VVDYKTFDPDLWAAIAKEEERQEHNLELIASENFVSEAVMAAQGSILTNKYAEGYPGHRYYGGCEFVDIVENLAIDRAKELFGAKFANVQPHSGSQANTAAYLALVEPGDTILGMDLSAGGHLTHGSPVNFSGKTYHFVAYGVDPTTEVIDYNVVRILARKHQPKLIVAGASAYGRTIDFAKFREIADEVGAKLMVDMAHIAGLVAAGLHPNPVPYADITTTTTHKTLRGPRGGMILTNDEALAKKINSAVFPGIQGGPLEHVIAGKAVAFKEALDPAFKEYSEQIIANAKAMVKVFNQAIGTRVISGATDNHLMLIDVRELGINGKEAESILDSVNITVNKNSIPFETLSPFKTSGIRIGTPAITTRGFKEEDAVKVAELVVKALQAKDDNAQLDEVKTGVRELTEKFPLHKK
# Procedure: After adding Me-THF, the efmSHMT solution was incubated for 30 min at room temperature. The optical density at 500 and 600 nm (OD500 and OD600) were then measured using a nanodrop spectrophotometer[24],[25]. OD600 was used as the background. After detection, each concentration of inhibitor was added to the efmSHMT solution and incubated for 30 min at room temperature. OD500 and OD600 were measured. The relative OD500 intensity was calculated as relative OD500 = (OD500 – OD600)/(MAXOD500 – OD600), where MAXOD500 is the average OD500 value in the presence of 1000, 2000 and 4000 μM Me-THF without inhibitors. […] Here, IC50 is the concentration of inhibitor added to the efmSHMT solution and [Me-THF] is the EC50 in the presence of the inhibitor concentration. [EC50 without inhibitor] is the EC50 of Me-THF in the absence of the inhibitor.
# [6] = read-out: pEC50 ± S.E. (converted)
structure (smiles),measurement,setting,value
Cc1n[nH]c2c1[C@](c1cc(CO)cc(-c3ccccc3)c1)(C(C)C)C(C#N)=C(N)O2 [(+)-SHIN-1],EC50,"E. faecium [1]; read-out: 50% effective concentration (EC50), growth of E. faecium, order of magnitude given",0.01 nM
same,EC50,"E. faecium [1]; E. faecium JCM5804, read-out: EC50",0.031 nM
same,EC50,"E. faecium [1]; E. faecium JCM5804, read-out: pEC50 ± S.E. (converted)",0.0316 nM
same,EC50,"E. faecium [1]; E. faecium, value of the response letter (earlier manuscript version), read-out: EC50 (turbidity)",0.044 ± 0.028 nM
same,50% effective concentration (EC50),"E. faecium [1]; growth of E. faecium, order of magnitude given",10^–10 to 10^–11 M
same,EC50,S. aureus; read-out: EC50,> 2000 nM
same,EC50,S. aureus; [6],> 2000 nM
same,ΔTm (thermal stability of efmSHMT),efmSHMT [2],7 °C
same,EC50,E. faecalis; read-out: EC50,> 2000 nM
same,EC50,E. faecalis; [6],> 2000 nM
same,mode of antibacterial action (time-dependent bacterial viability),E. faecium [3],bacteriostatically
same,EC50,E. faecium [3]; relative bacterial viability after 14 h incubation,0.23 nM
same,EC50,E. faecium [3]; value of the response letter (earlier manuscript version),0.21 ± 0.13 nM
same,binding to ecSHMT (DSF),ecSHMT,bound to ecSHMT
same,EC50,E. coli; read-out: EC50,> 2000 nM
same,EC50,E. coli; [6],> 2000 nM
same,EC50,"E. faecium [4]; 1 mM Inosine, read-out: EC50",0.36 nM
same,EC50,"E. faecium [4]; 1 mM Inosine, read-out: pEC50 ± S.E. (converted)",0.398 nM
same,EC50,"E. faecium [4]; 1 mM deoxythymidine, read-out: EC50",> 2000 nM
same,EC50,"E. faecium [4]; 1 mM deoxythymidine, read-out: pEC50 ± S.E. (converted)",> 2000 nM
same,EC50,"E. faecium [4]; 10 mM Glycine, read-out: EC50",0.12 nM
same,EC50,"E. faecium [4]; 10 mM Glycine, read-out: pEC50 ± S.E. (converted)",0.126 nM
same,EC50,"E. faecium [4]; 100 mM Serine, read-out: EC50",0.43 nM
same,EC50,"E. faecium [4]; 100 mM Serine, read-out: pEC50 ± S.E. (converted)",0.398 nM
same,EC50,"E. faecium [4]; 0.1 M folate, read-out: EC50",> 2000 nM
same,EC50,"E. faecium [4]; 0.1 M folate, read-out: pEC50 ± S.E. (converted)",> 2000 nM
same,Ki,"efmSHMT [5]; Ki, 2.5 μM efmSHMT, 10 mM Gly and 100 μM Ser, Cheng-Prusoff",8.8 nM
same,Ki,"efmSHMT [5]; Ki, 5 μM efmSHMT, 10 mM Gly and 100 μM Ser, Cheng-Prusoff",28 nM
same,Ki,"efmSHMT [5]; actual Ki (bound, as the assay's efmSHMT detection limit is 2.5 μM), efmSHMT",< 8.8 nM
same,Ki,"efmSHMT [5]; pKi ± pSE, 2.5 μM efmSHMT, 10 mM Gly and 100 μM Ser",7.94 nM
same,Ki,"efmSHMT [5]; pKi ± pSE, 5 μM efmSHMT, 10 mM Gly and 100 μM Ser",25.1 nM

# From PMC9223267, “Serine hydroxymethyltransferase as a potential target of antibacterial agents acting synergistically with one-carbon metabolism-related inhibitors” (Communications Biology, 2022)
